Reference: patent US20260250289A1, “BICYCLIC HETEROCYCLES AND THEIR USE AS WRN INHIBITORS” (Novartis AG, priority 2022, published 2026)

Columns and labels:
DLD1-WRN-KO cells = assay: Proliferation assay DLD1-WRN-KO (CellTiterGlo, off-target effects); type: cell-based; settings: 96 hours, geometric mean of at least 2
Outline: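 DLD1 cells with CRISPR knockout of WRN were exposed overnight-seeded to eight 3-fold compound dilutions (0.1% DMSO) for 96 h at 37 °C. Viability was read as ATP by CellTiterGlo luminescence against a day-0 plate, giving GI50 and residual viability at top concentration.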

SW48 cells = assay: Proliferation assay SW48 (CellTiterGlo); type: cell-based; settings: Homo sapiens, SW48, 96 h, SW48 colon carcinoma cells, 96 hours, CellTiterGlo; geometric mean of at least 2; read-out: Proliferation Assay SW48 GI50
Outline: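 Read-out is CellTiterGlo luminescence after 96 hours of compound exposure, with % growth calculated against day-0 and vehicle-treated ATP levels. SW48 seeded at 2,000 cells/well, dosed next day with eight 3-fold serial dilutions, 0.1% DMSO. GI50 reported as geometric mean, at least 2 replicates.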

[1] = target: T1, WRN helicase (aa N517-P1238) (Homo sapiens, UniProt Q14191); assay: WRN ATPase assay (DNA dependent ATP hydrolysis, ADP-Glo); type: biochemical; settings: 3 hours pre-incubation, 300 micromolar ATP, FLAP26 DNA; geometric mean of at least 2
T1 construct: The core helicase motif of the WRN protein (aa N517-P1238) was produced for this assay; His (N); ZZ (N); 3C protease cleavage site (N); made in house; host or cells: Sf21 insect cells (baculovirus; virus and BIICs made in SF9)
T1 sequence (Q14191 517-1238): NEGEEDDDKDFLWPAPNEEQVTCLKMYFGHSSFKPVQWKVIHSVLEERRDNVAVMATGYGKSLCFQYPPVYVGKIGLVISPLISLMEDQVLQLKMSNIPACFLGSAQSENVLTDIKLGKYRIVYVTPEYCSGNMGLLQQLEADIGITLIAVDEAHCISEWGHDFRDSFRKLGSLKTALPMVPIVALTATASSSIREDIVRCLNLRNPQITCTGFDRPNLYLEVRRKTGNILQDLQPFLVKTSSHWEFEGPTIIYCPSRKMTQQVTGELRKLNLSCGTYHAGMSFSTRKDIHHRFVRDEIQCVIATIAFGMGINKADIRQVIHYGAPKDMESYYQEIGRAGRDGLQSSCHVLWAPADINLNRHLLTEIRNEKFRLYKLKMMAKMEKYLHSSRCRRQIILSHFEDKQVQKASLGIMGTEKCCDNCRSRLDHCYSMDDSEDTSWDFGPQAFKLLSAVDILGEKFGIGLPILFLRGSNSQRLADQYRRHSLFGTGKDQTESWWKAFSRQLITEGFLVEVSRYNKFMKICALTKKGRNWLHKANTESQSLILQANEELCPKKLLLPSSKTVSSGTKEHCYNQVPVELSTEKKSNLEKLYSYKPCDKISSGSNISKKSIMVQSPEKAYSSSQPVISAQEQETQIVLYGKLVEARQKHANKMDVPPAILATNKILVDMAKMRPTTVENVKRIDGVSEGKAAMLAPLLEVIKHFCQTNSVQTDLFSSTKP
Outline: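 DNA-dependent ATP hydrolysis detected as ADP by ADP-Glo luminescence, using 300 μM ATP, 0.2 nM FLAP26 substrate and 10 nM WRN aa N517-P1238 (Tris pH 7.5 buffer, 2 mM MgCl2, 50 mM NaCl). IC50s fitted from normalized duplicate half-log dilutions; reported as geometric means of at least 2 replicates.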

`CC(=O)N(C)Cc1ccc(-c2nc3n(CC(=O)Nc4ccc(C(F)(F)F)cc4)c(C)c(N4CCN(C(C)=O)CC4)c(=O)n3n2)cc1` [Example 70, 2-(6-(4-acetylpiperazin-1-yl)-5-methyl-2-(4-((N-methylacetamido)methyl)phenyl)-7-oxo-[1,2,4]triazolo[1,5-a]pyrimidin-4(7H)-yl)-N-(4-(trifluoromethyl)phenyl)acetamide] gave a GI50 (DLD1-WRN-KO cells) greater than 10 µM, a GI50 (SW48 cells) of 0.9 µM and an IC50 [1] of 0.07 µM.

In the case of `CC(=O)N1CCN(c2c(C)n(CC(=O)Nc3cc(C(F)(F)F)c(Cl)cc3C)c3nc(C4=CCOCC4)nn3c2=O)CC1` [Example 80, 2-(6-(4-acetylpiperazin-1-yl)-2-(3,6-dihydro-2H-pyran-4-yl)-5-methyl-7-oxo-[1,2,4]triazolo[1,5-a]pyrimidin-4(7H)-yl)-N-(4-chloro-2-methyl-5-(trifluoromethyl)phenyl)acetamide], the GI50 (DLD1-WRN-KO cells) is reported as greater than 10 µM, the GI50 (SW48 cells) is reported as 0.8 µM and the IC50 [1] is reported as 0.3 µM.
